Test results published in US8697031B2, “Dual function polymer micelles” (Case Western Reserve University, priority 2004, dated 2014).
Where no end group is shown, it is not given here.

System: SLK tumor endothelial cells
Experiment: Flow cytometry analysis of micelle uptake
Format: cell-based
Details: SLK cells pre-incubated with free blocking peptide at 9 mM, then co-incubated with micelles
Description: SLK cells were seeded at 125,000 cells/well in 6-well plates in 2 mL DMEM with 10% FBS. After 24 h, 1 mg of micelles (from 3.3 mg/ml micelle suspension) for each micelle formulation with different cRGD density (0, 5, 16, 76% cRGD) was added into each well and incubated at 37° C. for 2 h. Then, cells were washed, trypsinized and neutralized. After centrifugation at 1200 rpm for 5 min, cells were re-suspended in 1 mL PBS, followed by filtration and analysis using flow cytometry. […] In the control experiment, SLK cells were first incubated with a free blocking peptide, Ala-Ala-Arg-Gly-Asp-Tyr (AARGDY) (SEQ ID NO: 757), and then co-incubated with 76% cRGD-functionalized micelles.

## AARGDY
  inhibition of uptake of 76% cRGD-functionalized micelles: ~100%
